# Assay results reported in patent US4868181A, “1,4-dihydropyridine derivatives with calcium agonist and alpha1 -antagonist activity” (E. I. Du Pont de Nemours and Company, priority 1987, dated 1989).
# How the values were obtained:
# [1] = target: alpha1 -adrenoceptors; assay: [^3 H]-prazosin binding assay (affinity for alpha1-adrenoceptors); conditions: rat brain membranes, 0.2 nM [^3 H]-prazosin, 60 minutes at 25°
# Description: The [^3 H]-prazosin binding assay was carried out according to the method described by Timmermans, P. B. M. W. M., Schoop, A. M. C., and Van Zwieten, P. A.: Biochem Pharmacol., 31, 899-905, 1982 (1). The reaction mixture contained partially purified rat brain membranes (source of alpha1 -adrenoceptors), 0.2 nM [^3 H]-prazosin with or without potential displacer in Tris buffer. The mixture was incubated for 60 minutes at 25° and subsequently terminated by rapid filtration through glass fiber-filter. Receptor-bound [^3 H]-prazosin trapped in the filter was quantitated by scintillation counting. The inhibitory concentration (IC50) of potential displacer which gives 50% displacement of the total specifically bound [^3 H]-prazosin is presented as a measure of the affinity of such compound for the alpha1 -adrenoceptor.
# [2] = target: T1, Ca^2 + channels (Rattus norvegicus, UniProt P22002); assay: [^3 H]-Nitrendipine binding assay (affinity for calcium channels); conditions: rat cardiac microsomes, 0.5 nM [^3 H]-nitrendipine, 60 minutes at 25°
# T1 construct: rat cardiac microsomes (source of Ca^2 + channels); from tissue; host or cells: rat cardiac microsomes
# T1 sequence (P22002 whole entry, other chains not shown): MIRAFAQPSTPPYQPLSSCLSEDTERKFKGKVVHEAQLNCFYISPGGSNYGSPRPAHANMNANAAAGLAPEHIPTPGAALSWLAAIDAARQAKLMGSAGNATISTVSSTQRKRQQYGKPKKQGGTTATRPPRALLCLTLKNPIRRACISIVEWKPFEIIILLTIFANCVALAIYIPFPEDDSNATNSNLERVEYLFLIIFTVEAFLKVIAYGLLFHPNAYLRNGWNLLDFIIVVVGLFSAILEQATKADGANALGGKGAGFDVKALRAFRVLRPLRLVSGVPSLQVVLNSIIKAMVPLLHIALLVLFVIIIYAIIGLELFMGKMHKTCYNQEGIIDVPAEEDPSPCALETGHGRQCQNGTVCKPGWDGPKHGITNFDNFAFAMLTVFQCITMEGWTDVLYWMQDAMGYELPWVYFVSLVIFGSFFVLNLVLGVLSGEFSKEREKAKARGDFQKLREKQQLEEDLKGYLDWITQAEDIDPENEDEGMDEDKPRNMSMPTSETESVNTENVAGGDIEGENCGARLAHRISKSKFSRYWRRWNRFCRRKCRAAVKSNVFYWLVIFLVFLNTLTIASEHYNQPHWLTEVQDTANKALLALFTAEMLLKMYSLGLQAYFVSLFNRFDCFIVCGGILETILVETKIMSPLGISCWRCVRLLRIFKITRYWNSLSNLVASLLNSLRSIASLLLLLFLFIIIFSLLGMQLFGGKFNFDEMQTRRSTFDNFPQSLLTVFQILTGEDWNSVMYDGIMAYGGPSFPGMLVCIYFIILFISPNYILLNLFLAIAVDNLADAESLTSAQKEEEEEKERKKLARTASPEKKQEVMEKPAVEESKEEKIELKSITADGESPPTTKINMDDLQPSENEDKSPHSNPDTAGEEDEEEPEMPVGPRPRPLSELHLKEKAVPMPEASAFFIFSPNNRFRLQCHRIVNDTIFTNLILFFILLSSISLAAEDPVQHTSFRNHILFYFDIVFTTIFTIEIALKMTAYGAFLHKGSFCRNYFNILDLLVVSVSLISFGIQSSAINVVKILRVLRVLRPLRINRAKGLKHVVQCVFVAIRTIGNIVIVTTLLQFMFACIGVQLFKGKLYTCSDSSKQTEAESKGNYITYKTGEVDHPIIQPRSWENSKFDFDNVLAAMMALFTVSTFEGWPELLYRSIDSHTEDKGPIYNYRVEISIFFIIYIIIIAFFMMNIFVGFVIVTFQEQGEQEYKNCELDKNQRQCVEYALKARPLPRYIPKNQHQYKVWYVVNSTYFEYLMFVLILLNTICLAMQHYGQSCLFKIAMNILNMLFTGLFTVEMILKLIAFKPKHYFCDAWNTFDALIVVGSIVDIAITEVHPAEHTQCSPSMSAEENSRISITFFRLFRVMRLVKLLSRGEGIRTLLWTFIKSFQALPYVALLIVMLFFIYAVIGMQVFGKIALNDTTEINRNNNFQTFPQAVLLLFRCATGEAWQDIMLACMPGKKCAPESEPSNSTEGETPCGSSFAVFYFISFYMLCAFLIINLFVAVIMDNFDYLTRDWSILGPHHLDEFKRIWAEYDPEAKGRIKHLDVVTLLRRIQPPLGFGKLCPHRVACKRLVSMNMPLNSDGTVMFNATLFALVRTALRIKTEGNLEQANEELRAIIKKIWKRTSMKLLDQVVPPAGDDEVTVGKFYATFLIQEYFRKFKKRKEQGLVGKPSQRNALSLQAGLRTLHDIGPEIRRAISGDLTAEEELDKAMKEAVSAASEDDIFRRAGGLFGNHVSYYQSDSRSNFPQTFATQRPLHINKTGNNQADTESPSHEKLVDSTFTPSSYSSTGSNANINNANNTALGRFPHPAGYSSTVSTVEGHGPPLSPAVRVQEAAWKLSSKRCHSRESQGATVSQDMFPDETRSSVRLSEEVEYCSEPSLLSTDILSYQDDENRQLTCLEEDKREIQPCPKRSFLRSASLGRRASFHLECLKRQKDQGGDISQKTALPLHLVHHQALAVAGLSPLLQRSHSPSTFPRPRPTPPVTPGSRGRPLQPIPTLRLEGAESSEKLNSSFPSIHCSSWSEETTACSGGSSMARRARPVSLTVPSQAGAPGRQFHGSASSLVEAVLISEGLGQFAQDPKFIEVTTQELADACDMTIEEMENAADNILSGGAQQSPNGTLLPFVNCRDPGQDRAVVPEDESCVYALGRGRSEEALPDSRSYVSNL
# T1 sequence (P54290 25-944 partner limits assumed, other chains not shown): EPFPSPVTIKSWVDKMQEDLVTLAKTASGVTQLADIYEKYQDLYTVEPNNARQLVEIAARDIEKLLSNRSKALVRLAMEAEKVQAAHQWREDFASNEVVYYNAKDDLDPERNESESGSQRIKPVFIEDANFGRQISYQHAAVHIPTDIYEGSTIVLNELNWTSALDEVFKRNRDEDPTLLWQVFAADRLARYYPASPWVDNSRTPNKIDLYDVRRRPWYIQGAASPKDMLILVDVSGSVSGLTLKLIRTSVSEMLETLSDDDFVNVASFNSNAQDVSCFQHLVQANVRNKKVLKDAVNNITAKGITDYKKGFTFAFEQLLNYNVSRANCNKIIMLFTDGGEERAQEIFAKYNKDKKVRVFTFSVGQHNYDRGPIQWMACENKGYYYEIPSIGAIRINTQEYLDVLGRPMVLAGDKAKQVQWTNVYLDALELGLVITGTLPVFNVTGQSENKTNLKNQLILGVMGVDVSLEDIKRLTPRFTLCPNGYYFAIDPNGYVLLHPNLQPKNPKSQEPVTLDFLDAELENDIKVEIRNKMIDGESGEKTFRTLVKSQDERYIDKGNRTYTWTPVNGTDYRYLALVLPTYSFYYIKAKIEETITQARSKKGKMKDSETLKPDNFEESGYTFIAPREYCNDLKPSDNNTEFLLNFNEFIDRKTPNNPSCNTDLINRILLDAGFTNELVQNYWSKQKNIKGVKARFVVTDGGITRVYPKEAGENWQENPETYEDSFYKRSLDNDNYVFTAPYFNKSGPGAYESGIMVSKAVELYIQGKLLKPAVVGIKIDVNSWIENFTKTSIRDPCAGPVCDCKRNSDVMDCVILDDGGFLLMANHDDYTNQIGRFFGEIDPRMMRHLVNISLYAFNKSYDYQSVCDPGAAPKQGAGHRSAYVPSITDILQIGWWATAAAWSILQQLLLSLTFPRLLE
# T1 sequence (P54290 945-1091 partner limits assumed, other chains not shown): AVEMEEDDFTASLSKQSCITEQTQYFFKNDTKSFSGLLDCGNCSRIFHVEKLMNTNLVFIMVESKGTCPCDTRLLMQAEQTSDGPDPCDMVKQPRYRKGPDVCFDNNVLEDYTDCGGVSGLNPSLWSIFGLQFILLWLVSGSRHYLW
# Description: [^3 H]-Nitrendipine binding assay was carried out according to the method described by G. T. Bolger, et al., Biochem. Biophys. Res. Comm., 104, 1604-1609, 1982 (1). The reaction mixture contained rat cardiac microsomes (source of Ca^2 + channels), 0.5 nM [^3 H]-nitrendipinewith or without potential displacer in Tris buffer. The mixture was incubated for 60 minutes at 25° and subsequently terminated by rapid filtration through a glass fiber-filter. Membrane-bound [^3 H]-nitrendipine trapped in the filter was quantitated by scintillation counting. The inhibitory concentration (IC50) of potential displacer which gives 50% displacement of the total specifically bound [^3 H]-nitrendipine is presented as a measure of the affinity of such compound for the Ca^2 + channel.
# [3] = system: guinea pig left atria; assay: Positive inotropic effect in guinea pig left atria; conditions: 37°; for EC50: left atria paced at 2Hz, cumulative addition to maximum 10^-4, read-out: EC50 (concentration that increases DT by 50% above the control DT); for Intrinsic Activity (ratio of the maximum effect of the test compound to that of Bay K 8644): relative to Bay K 8644, left atria paced at 2Hz
# Description: Guinea pigs are killed by cervical dislocation. The left atria are removed and mounted at 1 gm resting tension in tissue baths containing oxygenated Krebs bicarbonate solution which is kept at 37°. The left atria are electrically paced at 2Hz with square wave pulses of 1 msec duration. The voltage is set at 1.5× threshold level.
# After a one hour equilibration period, control values for developed tension (DT, gm) are recorded. Test compounds are then added to the baths, in a cumulative manner to a maximum concentration of 10^-4, to obtain a concentration-response curve. Treatment values of DT are obtained after the rug effect has reached a plateau and the exposure time for each concentration is 5-8 minutes. Percent change of the treatment value from the control value is calculated at each concentration of the test compound.
# [4] = system: calcium ions influx; conditions: cited from earlier work
IC50 [1] [nM],IC50 [2] [nM],EC50 [3] [nM],SMILES,Intrinsic Activity (ratio of the maximum effect of the test compound to that of Bay K 8644) [3] [%],calcium ion influx and resulting effects [4]
330,380,3000,COC(=O)C1=C(C)NC(C)=C([N+](=O)[O-])C1c1cccc(OCCCCCCN2CCN(c3ccccc3OC)CC2)c1 (stereo not drawn) [Example 130],25,
300,300,6000,COc1ccccc1N1CCN(CCCCOC(=O)C2=C(C)NC(C)=C([N+](=O)[O-])C2c2ccccc2C(F)(F)F)CC1 (stereo not drawn) [Example 56],100,
440,470,30000,CCOC(=O)C1=C(C)NC(C)=C([N+](=O)[O-])C1c1ccccc1OCCCCN1CCN(c2ccccc2OC)CC1 (stereo not drawn) [Example 120],50,
410,4100,> 100000,COC(=O)C1=C(C)NC(C)=C([N+](=O)[O-])C1c1cccc(OCCCCN2CCN(c3ccccc3OC)CC2)c1 (stereo not drawn) [Example 107],0,
240,1600,> 100000,COC(=O)C1=C(C)NC(C)=C([N+](=O)[O-])C1c1cccc(OC)c1OC/C=C\CN1CCN(c2ccccc2OC)CC1 (stereo not drawn) [Example 114],0,
48,2900,> 100000,COC(=O)C1=C(C)NC(C)=C([N+](=O)[O-])C1c1cccc(OC)c1OCCN1CCN(c2ccccc2OC)CC1 (stereo not drawn) [Example 87],0,
260,4800,2000,COC(=O)C1=C(C)NC(C)=C([N+](=O)[O-])C1c1ccccc1OCCCN1CCN(c2ccccc2OC)CC1 (stereo not drawn) [Example 88],50,
440,1400,> 100000,COC(=O)C1=C(C)NC(C)=C([N+](=O)[O-])C1c1cccc(OCC=CCN2CCN(c3ccccc3OC)CC2)c1 (stereo not drawn) [Example 125],0,
,,,CCOC(=O)C1=C(C)NC2=C(C(=O)OC2)C1c1ccccc1OC(F)F (stereo not drawn) [CGP28392],,"promote an influx of calcium ions, therefore producing positive inotropic and vasoconstrictor effects"
570,3300,> 100000,COC(=O)C1=C(C)NC(C)=C([N+](=O)[O-])C1c1cccc(OCCCCCN2CCN(c3ccccc3OC)CC2)c1 (stereo not drawn) [Example 113],0,
190,850,> 100000,COC(=O)C1=C(C)NC(C)=C([N+](=O)[O-])C1c1cccc(OC)c1OCCCCCN1CCN(c2ccccc2OC)CC1 (stereo not drawn) [Example 111],0,
180,220,3000,COC(=O)C1=C(C)NC(C)=C([N+](=O)[O-])C1c1ccccc1OCCCCN1CCN(c2ccccc2OC)CC1 (stereo not drawn) [Example 105],20,
180,1700,> 100000,CCOc1cccc(C2C(C(=O)OC)=C(C)NC(C)=C2[N+](=O)[O-])c1OCCCCCN1CCN(c2ccccc2OC)CC1 (stereo not drawn) [Example 112],0,
800,29,44,"COc1ccccc1N1CCN(CCOC(=O)C2=C(C)NC(C)=C([N+](=O)[O-])C2c2ccccc2C(F)(F)F)CC1 (stereo not drawn) [Example 2, 1,4-Dihydro-2,6-Dimethyl-5-nitro-4-[2-(trifluoromethyl)phenyl]-[2-[4-(2-methoxyphenyl)-1-piperazinyl]ethyl]ester-3-pyridinecarboxylic acid]",145,
1100,67,> 100000,"COC(=O)C1=C(C)NC(C)=C([N+](=O)[O-])C1c1ccccc1OCCCCCCCCCCN1CCN(c2ccccc2OC)CC1 (stereo not drawn) [Example 61, 1,4-dihydro-2,6-dimethyl-4[2(10-(4-(2-methoxyphenyl)-piperazinyl)decyloxy)phenyl]-5-nitro-methyl ester-3-pyridinecarboxylic acid]",10,
140,250,> 100000,COC(=O)C1=C(C)NC(C)=C([N+](=O)[O-])C1c1cccc(OC)c1OCCCN1CCN(c2ccccc2OC)CC1 (stereo not drawn) [Example 106],0,
1200,990,> 100000,CCOc1cccc(C2C(C(=O)OC)=C(C)NC(C)=C2[N+](=O)[O-])c1OCCCN1CCN(c2ccccc2OC)CC1 (stereo not drawn) [Example 108],0,
610,790,> 100000,CCOc1cccc(C2C(C(=O)OC)=C(C)NC(C)=C2[N+](=O)[O-])c1OCCCCN1CCN(c2ccccc2OC)CC1 (stereo not drawn) [Example 109],0,
> 10000,830,30000,COc1cccc(OC)c1OCCNCCOC(=O)C1=C(C)NC(C)=C([N+](=O)[O-])C1c1ccccc1C(F)(F)F (stereo not drawn) [Example 13],50,
380,360,2000,COC(=O)C1=C(C)NC(C)=C([N+](=O)[O-])C1c1ccccc1OCCCCCCN1CCN(c2ccccc2OC)CC1 (stereo not drawn) [Example 129],15,
250,180,> 100000,COC(=O)C1=C(C)NC(C)=C([N+](=O)[O-])C1c1cc(Br)ccc1OCCCCN1CCN(c2ccccc2OC)CC1 (stereo not drawn) [Example 142],0,
350,4600,> 100000,COC(=O)C1=C(C)NC(C)=C([N+](=O)[O-])C1c1cccc(OCCN2CCN(c3ccccc3OC)CC2)c1 (stereo not drawn) [Example 69],10,
130,850,1900,COC(=O)C1=C(C)NC(C)=C([N+](=O)[O-])C1c1ccccc1OCCN1CCN(c2ccccc2OC)CC1 (stereo not drawn) [Example 58],90,

SMILES,IC50 [1] [nM],IC50 [2] [nM],EC50 [3] [nM],Intrinsic Activity (ratio of the maximum effect of the test compound to that of Bay K 8644) [3] [%],calcium ion influx and resulting effects [4]
"COC(=O)C1=C(C)NC(C)=C([N+](=O)[O-])C1c1ccccc1OCCCCCN1CCN(c2ccccc2OC)CC1 (stereo not drawn) [Example 59, 1,4-dihydro-2,6-dimethyl-4[2-(5-(4-(2-methoxyphenyl)-1-piperazinyl)pentoxyl)-phenyl]-5-nitro-methyl ester-3-pyridinecarboxylic acid]",130,290,1000,35,
COC(=O)C1=C(C)NC(C)=C([N+](=O)[O-])C1c1cccc([N+](=O)[O-])c1OCCCCCN1CCN(c2ccccc2OC)CC1 (stereo not drawn) [Example 140],180,160,> 100000,0,
"COC(=O)C1=C(C)NC(C)=C([N+](=O)[O-])C1c1ccccc1OCCCCN1CCN(c2ncccn2)CC1 (stereo not drawn) [Example 60, 1,4-dihydro-2,6-dimethyl-'nitro-4-[2-(4-(4-(2-pyrimidinyl)-piperazinyl)butoxy)phenyl]methylester-36pyridinecarboxylic acid]",4900,1000,1000,50,
COC(=O)C1=C(C)NC(C)=C([N+](=O)[O-])C1c1cccc([N+](=O)[O-])c1OCCCN1CCN(c2ccccc2OC)CC1 (stereo not drawn) [Example 139],140,120,> 100000,0,
